Assay results taken from PubChem BioAssay (NCI).
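Method: 48-hour compound exposure of cells in 96-well plates, five concentrations, linear interpolation of endpoints. At the GI50, growth is halved. TGI: concentration producing complete growth inhibition.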

Columns and labels:
Experiment in all cases: NCI-60 cell line screen, 48 h
[1] = system: HCT-116 colon
[2] = system: NCI/ADR-RES ovarian
[3] = system: LOX IMVI melanoma
[4] = system: SNB-75 CNS
[5] = system: IGROV1 ovarian
[6] = system: T-47D breast
[7] = system: TK-10 renal
[8] = system: NCI-H460 lung

CC1=CC2C(C(O)CC3(C)C2CC(C)C32OCOC23COCO3)C2(C)C/C(=C/O)C(=O)C=C12 (stereo not drawn) gave a GI50 [1] of 1.49 µM, a TGI [1] of 2.97 µM and a GI50 [2] of 2.28 µM. It also gave a TGI [2] of 4.8 µM, a GI50 [3] of 1.75 µM and a TGI [3] of 3.31 µM. It also gave a GI50 [4] of 1.63 µM, a TGI [4] of 3.03 µM and a GI50 [5] of 2.07 µM. It also gave a TGI [5] of 4 µM, a GI50 [6] of 2.33 µM and a TGI [6] of 5.73 µM. It also gave a GI50 [7] of 1.91 µM and a TGI [7] of 3.59 µM.
Compound COc1c(C(C)=O)c(OCCCCOc2c(C(C)=O)c(OC)c3ccoc3c2OC)c(OC)c2occc12 has a GI50 [1] of 3.71 µM, a TGI [1] greater than 100 µM and a GI50 [8] greater than 24.3 µM. The TGI [8] was greater than 100 µM, the GI50 [2] was 1.61 µM and the TGI [2] was 4.92 µM. It also gave a GI50 [3] of 4.81 µM, a TGI [3] greater than 100 µM and a GI50 [4] of 8.72 µM. For the same compound, the TGI [4] was greater than 100 µM, the GI50 [5] was 7.58 µM and the TGI [5] was greater than 100 µM. For the same compound, the GI50 [6] was 2.02 µM, the TGI [6] was greater than 26.4 µM and the GI50 [7] was greater than 23.4 µM. The TGI [7] was greater than 100 µM.
Nc1ccn(C2CC(F)C(CO)O2)c(=O)n1 (stereo not drawn) showed a GI50 [1] greater than 100 µM, a TGI [1] greater than 100 µM and a GI50 [8] greater than 100 µM. The TGI [8] was greater than 100 µM, the GI50 [2] was greater than 100 µM and the TGI [2] was greater than 100 µM. It also gave a GI50 [3] greater than 100 µM, a TGI [3] greater than 100 µM and a GI50 [4] greater than 100 µM. For the same compound, the TGI [4] was greater than 100 µM, the GI50 [5] was greater than 100 µM and the TGI [5] was greater than 100 µM. The GI50 [6] was greater than 100 µM, the TGI [6] was greater than 100 µM and the GI50 [7] was greater than 100 µM. For the same compound, the TGI [7] was greater than 100 µM.
Compound COC(=O)c1cc(-c2ccccc2)[nH]c1N/N=C/c1c(Cl)cccc1Cl has a GI50 [1] of 0.318 µM, a TGI [1] of 1.71 µM and a GI50 [8] of 0.319 µM. It also gave a TGI [8] of 1.25 µM, a GI50 [2] of 0.22 µM and a TGI [2] of 0.77 µM. For the same compound, the GI50 [3] was 0.602 µM, the TGI [3] was 17.7 µM and the GI50 [4] was 0.215 µM. It also gave a TGI [4] of 2.43 µM, a GI50 [5] of 0.412 µM and a GI50 [6] of 0.418 µM. For the same compound, the TGI [6] was 7.36 µM, the GI50 [7] was 0.392 µM and the TGI [7] was 2.4 µM.
COc1ccc(/C=C(/c2ccccc2)[N+](=O)[O-])c(OC)c1 was tested, and the GI50 [1] was 1.02 µM, the TGI [1] was 2.29 µM and the GI50 [8] was 1.87 µM. It also gave a TGI [8] of 3.87 µM, a GI50 [2] of 1.72 µM and a TGI [2] of 5.63 µM. The GI50 [3] was 0.399 µM, the TGI [3] was 1.63 µM and the GI50 [4] was 0.363 µM. The TGI [4] was 1.84 µM, the GI50 [5] was 1.47 µM and the TGI [5] was 2.95 µM. The GI50 [6] was 0.668 µM, the TGI [6] was 4.21 µM and the GI50 [7] was 2.24 µM. For the same compound, the TGI [7] was 4.18 µM.
Work on CCOc1ccc2c(-c3ccnc(Nc4cc(OC)cc(C(F)(F)F)c4)n3)cnn2n1 yielded a GI50 [1] of 6.42 µM, a TGI [1] greater than 25 µM and a GI50 [8] greater than 15.7 µM. The TGI [8] was greater than 25 µM, the GI50 [2] was 4.66 µM and the TGI [2] was greater than 25 µM. For the same compound, the GI50 [3] was 15.7 µM, the TGI [3] was greater than 25 µM and the GI50 [4] was 15.1 µM. The TGI [4] was greater than 25 µM, the GI50 [5] was 4.87 µM and the TGI [5] was greater than 25 µM. The GI50 [6] was 1.26 µM, the TGI [6] was greater than 25 µM and the GI50 [7] was greater than 16.3 µM. The TGI [7] was greater than 25 µM.
With CO/N=C(\COc1ccc2c(=O)c3ccccc3oc2c1)c1ccccc1 the GI50 [1] was 68.6 µM, the TGI [1] was greater than 100 µM and the GI50 [8] was 38.9 µM. The TGI [8] was greater than 100 µM, the GI50 [2] was 77.1 µM and the TGI [2] was greater than 100 µM. The GI50 [3] was 35.9 µM, the TGI [3] was greater than 100 µM and the GI50 [4] was 68.8 µM. The TGI [4] was greater than 100 µM, the GI50 [5] was 39.6 µM and the TGI [5] was greater than 100 µM. The GI50 [6] was greater than 100 µM, the TGI [6] was greater than 100 µM and the GI50 [7] was 18.6 µM. The TGI [7] was 38.1 µM.
CN(C)Cc1ccc(-c2cc3onc(-c4ccccc4)c3c(=O)n2C)cc1 was tested, and the TGI [1] was 30.3 µM, the TGI [8] was 32.3 µM and the TGI [2] was greater than 100 µM. It also gave a TGI [3] of 49.8 µM, a TGI [5] greater than 100 µM and a TGI [6] of 58.4 µM. It also gave a TGI [7] of 53.1 µM.
Work on CCCCCCCCCCCC1=NC(C)(C)CN1C(C)(C)CO yielded a GI50 [1] of 1.56 µM, a TGI [1] of 3.06 µM and a GI50 [8] of 1.55 µM. It also gave a TGI [8] of 2.91 µM, a GI50 [2] of 2.41 µM and a TGI [2] of 5.76 µM. For the same compound, the GI50 [3] was 1.91 µM, the TGI [3] was 3.79 µM and the GI50 [4] was 2.3 µM. For the same compound, the TGI [4] was 7.12 µM, the GI50 [6] was 2.05 µM and the TGI [6] was 5.31 µM. For the same compound, the GI50 [7] was 1.94 µM and the TGI [7] was 3.61 µM.
Cc1ccc(/C=C/c2c(C(=O)/C=C/c3ccccc3)c(C)nc3ccccc23)cc1 showed a GI50 [1] of 0.762 µM, a TGI [1] of 2.2 µM and a GI50 [8] of 1.37 µM. For the same compound, the TGI [8] was 2.99 µM, the GI50 [2] was 2.24 µM and the TGI [2] was 5.85 µM. For the same compound, the GI50 [3] was 1.64 µM, the TGI [3] was 3 µM and the GI50 [5] was 1.41 µM. It also gave a TGI [5] of 4.48 µM, a GI50 [6] of 1.28 µM and a TGI [6] of 4.32 µM.
Work on Cc1cn2c(/C=C3/C(=O)Nc4c3ccc3ccccc43)c(C(F)(F)F)nc2s1 yielded a GI50 [1] of 2.19 µM, a TGI [1] greater than 100 µM and a GI50 [8] of 0.501 µM. The TGI [8] was 25.3 µM, the GI50 [2] was 0.456 µM and the TGI [2] was greater than 100 µM. For the same compound, the GI50 [3] was 1.07 µM, the TGI [3] was 21.1 µM and the GI50 [4] was 0.582 µM. For the same compound, the TGI [4] was greater than 100 µM, the GI50 [6] was 2.88 µM and the TGI [6] was greater than 100 µM. For the same compound, the GI50 [7] was 12.6 µM and the TGI [7] was greater than 100 µM.
With CCCn1c2c(c3c(O)cccc31)C(=O)c1ccccc1-2 the GI50 [1] was 29.2 µM, the TGI [1] was greater than 100 µM and the GI50 [8] was 22.1 µM. The TGI [8] was greater than 100 µM, the GI50 [2] was 13.4 µM and the TGI [2] was 81.6 µM. For the same compound, the GI50 [3] was 31.6 µM, the TGI [3] was greater than 100 µM and the GI50 [5] was 10.9 µM. The TGI [5] was greater than 100 µM, the GI50 [6] was 10 µM and the TGI [6] was greater than 100 µM. It also gave a GI50 [7] of 16.4 µM and a TGI [7] greater than 100 µM.
CN1C(=O)c2ccc3ccccc3c2C1=O showed a TGI [1] greater than 100 µM, a TGI [8] greater than 100 µM and a TGI [2] greater than 100 µM. The TGI [4] was greater than 100 µM, the TGI [5] was greater than 100 µM and the TGI [6] was greater than 100 µM. It also gave a TGI [7] greater than 100 µM.
With O=C(Oc1cccc(Cl)c1)c1ccccc1Nc1ccnc(C(F)(F)F)c1 the GI50 [1] was 1.63 µM, the TGI [1] was 3.45 µM and the GI50 [8] was 11.2 µM. For the same compound, the TGI [8] was 43.7 µM, the GI50 [2] was 2.24 µM and the TGI [2] was 6.1 µM. The GI50 [5] was 15.2 µM, the TGI [5] was greater than 100 µM and the GI50 [7] was 85 µM. It also gave a TGI [7] greater than 100 µM.
Work on COc1cc2c3c(n(CCCN)c(=O)c2cc1OC)-c1ccc([N+](=O)[O-])cc1C3=O yielded a GI50 [1] of 1.32 µM, a TGI [1] of 2.74 µM and a GI50 [8] of 0.572 µM. The TGI [8] was 2.35 µM, the GI50 [2] was 14 µM and the TGI [2] was greater than 100 µM. For the same compound, the GI50 [3] was 2.28 µM, the TGI [3] was 16.6 µM and the GI50 [4] was 16.3 µM. It also gave a TGI [4] of 34.7 µM, a GI50 [6] of 3.86 µM and a TGI [6] of 20.2 µM. The GI50 [7] was 20.7 µM and the TGI [7] was 41.4 µM.
COc1ccc(-c2cc(=O)n(-c3nc4ccccc4[nH]3)[nH]2)cc1OC was tested, and the GI50 [1] was 5.83 µM, the TGI [1] was greater than 100 µM and the GI50 [8] was 3.91 µM. It also gave a TGI [8] of 68.3 µM, a GI50 [2] of 3.57 µM and a TGI [2] of 33.3 µM. The GI50 [3] was 6.73 µM, the TGI [3] was greater than 100 µM and the GI50 [4] was 4.99 µM. It also gave a TGI [4] of 81.1 µM, a GI50 [5] of 6.08 µM and a TGI [5] of 76.2 µM.
